Entries after “also recorded” stand apart in the source; their conditions may differ.
Experiments:
[1] = target: T1, GAL4-PPARδ LBD (Homo sapiens, UniProt Q03181); assay: GAL4-PPARδ LBD luciferase reporter assay in HEK293 cells; type: cell-based; conditions: for PPARδ activation compared with dietary PUFAs (in words): 30 μM fatty acids, Fig. 2A; for PPARδ activation (in words): 100 μM fatty acids, Fig. 1B; for EC50: GAL4-PPARδ LBD, calculated from luciferase activity with Quest Graph EC50 Calculator
T1 construct: chimeric receptors containing the LBD of various NRs; expressed in transfected cells; host or cells: HEK293
T1 sequence (Q03181 211-439 limits assumed): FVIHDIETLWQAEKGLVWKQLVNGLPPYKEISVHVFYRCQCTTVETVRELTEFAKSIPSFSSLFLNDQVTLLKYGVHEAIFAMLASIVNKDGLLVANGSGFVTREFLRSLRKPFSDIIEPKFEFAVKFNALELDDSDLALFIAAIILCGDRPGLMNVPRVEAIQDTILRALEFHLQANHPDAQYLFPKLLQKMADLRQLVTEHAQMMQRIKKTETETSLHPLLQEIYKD

[2] = test system: human intestinal organoids; assay: PPARδ target gene mRNA expression in human intestinal organoids (RT-qPCR); type: cell-based; conditions: 1 μM GW1516 or 30 μM fatty acids for 24 h
[3] = target: T2, recombinant human PPARδ LBD protein (Homo sapiens, UniProt Q03181); assay: [14C] DHA competitive ligand-binding assay; conditions: 100 nM [14C] DHA, 1 μM nonlabeled fatty acids, overnight at 4 °C
T2 construct: Human PPARδ LBD (140–442) construct was cloned into a pGEX-4T1 vector; GST (N, cleaved yes); made in house; host or cells: Escherichia coli BL21 (DE3) pLys
T2 sequence (Q03181 140-441 limits assumed): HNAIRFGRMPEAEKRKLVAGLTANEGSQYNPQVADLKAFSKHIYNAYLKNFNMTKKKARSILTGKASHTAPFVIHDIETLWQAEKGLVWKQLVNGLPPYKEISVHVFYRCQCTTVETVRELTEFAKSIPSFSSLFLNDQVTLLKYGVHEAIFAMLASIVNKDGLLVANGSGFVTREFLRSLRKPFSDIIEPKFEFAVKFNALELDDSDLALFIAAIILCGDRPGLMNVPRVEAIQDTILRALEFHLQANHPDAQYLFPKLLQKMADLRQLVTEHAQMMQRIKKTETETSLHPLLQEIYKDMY
Method: To identify the mechanism underlying the activation of PPARδ by GLA-derived fatty acids, we performed a [^14C] DHA competitive ligand-binding assay describing the displacement of ligands from receptors with recombinant human PPARδ LBD protein produced by a bacterial expression system (Figs. 4, A and B and S2). PPARδ LBD or glutathione-S-transferase (GST) recombinant protein was incubated with both [^14C] […] A competitive inhibition of [^14C] DHA binding was analyzed as a direct binding to PPARδ LBD (see Experimental procedures). […] DHA binding to PPARδ LBD competitively (Fig. 4C).
Human PPARδ LBD (140–442) construct was cloned into a pGEX-4T1 vector (GE Healthcare Life Sciences) at the restriction enzyme site of SmaI and XhoI. The protein was expressed in Eschericia coli BL21 (DE3) pLys cells (Novagen) as a C-terminal fusion to a GST tag with a thrombin cleavage site. A single colony was cultured in 2 ml of LB media supplemented with 20 μg/ml of ampicillin and 30 μg/ml of chloramphenicol at 37 °C and 200 rpm for 18 h. The preculture was then transferred to 1 l of LB media until the A600 reached 0.6 to 0.8. IPTG was added to produce a final concentration of 0.4 mM, and expression was continued at 24 °C and 150 rpm for 18 h. Cells were collected using centrifugation, and pellets were resuspended in lysis buffer comprising 50 mM Tris–HCl (pH 7.5), 150 mM NaCl, 5 mM DTT, 1 mM EDTA, and 10% glycerol before sonication was performed. The supernatant was then collected using centrifugation at 100,000g and 4 °C for 70 min, after which it was loaded onto GST Accept (nacalai tesque) and equilibrated using the lysis buffer. Subsequently, the column was washed using five column volumes of the lysis buffer and thrombin cleavage buffer comprising 20 mM Tri–HCl (pH 8.4), 150 mM NaCl, 2.5 mM CaCl2, and 1 mM DTT, respectively. The GST tag was removed via digestion using biotinylated thrombin (Merck) for 18 h at 4 °C. The biotinylated thrombin was removed using Dynabeads M-280 streptavidin (Veritas). The purity of the target proteins was verified using SDS-PAGE.
A ligand-binding assay was performed as described previously with minor modifications ([72]). Briefly, purified recombinant human PPARδ LBD protein was incubated with 100 nM ([…]) [^14C] DHA in GP buffer (137 mM NaCl, 8.1 mM Na2HPO4, 2.68 mM KCl, 1.47 mM KH2PO4, 1% sodium azide, and 0.1% gelatin) overnight at 4 °C with or without various competitors (1 μM), including DHA and GLA-derived fatty acids. Unbound ligands were removed by adsorption to 3% dextran-coated charcoal, and the supernatant was collected. The PPARδ-bound [^14C] DHA was measured using a scintillation counter (PerkinElmer).

[4] = target: T3, VP16-PPARα / GAL4-NCoR (Homo sapiens, UniProt Q07869); assay: mammalian two-hybrid assay, VP16-PPARα and corepressor NCoR; type: cell-based; conditions: 30 μM fatty acids, HEK293 cells, Fig. 3D
T3 construct: expressed in transfected cells; host or cells: HEK293
T3 sequence (Q07869 1-468): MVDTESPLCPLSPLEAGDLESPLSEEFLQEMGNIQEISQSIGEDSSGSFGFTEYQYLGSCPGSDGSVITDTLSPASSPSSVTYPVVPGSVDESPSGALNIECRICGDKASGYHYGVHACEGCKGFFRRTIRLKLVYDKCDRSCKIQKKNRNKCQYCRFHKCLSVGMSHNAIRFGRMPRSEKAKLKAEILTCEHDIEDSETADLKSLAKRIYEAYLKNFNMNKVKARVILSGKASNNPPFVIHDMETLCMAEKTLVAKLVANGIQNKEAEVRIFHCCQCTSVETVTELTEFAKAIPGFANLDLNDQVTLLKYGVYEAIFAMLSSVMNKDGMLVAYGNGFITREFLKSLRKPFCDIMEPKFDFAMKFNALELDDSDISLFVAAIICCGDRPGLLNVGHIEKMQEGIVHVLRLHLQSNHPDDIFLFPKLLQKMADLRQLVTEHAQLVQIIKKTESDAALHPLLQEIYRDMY

Row | SMILES | PPARδ activation compared with dietary PUFAs (in words) [1] | PPARδ activation (in words) [1] | EC50 [1] [µM] | expression of PPARδ target genes (CPT1A, HMGCS2, PDK4, ACSL1) [2] | competitive displacement of [14C] DHA binding to PPARδ LBD [3] | interaction between PPARα and corepressor NCoR [4]
1 | CCCCCC(=O)CCC=CCC=CCCCCC(=O)O [γKetoD, 13-oxo-cis-6,cis-9-octadecadienoic acid] | activated PPARδ more robustly than DHA and eicosapentaenoic acid as well as GLA | more robust PPARδ activation than their original compound, GLA | 20.3 | increased the expression of PPARδ target genes | displaced [^14C] DHA binding to PPARδ LBD competitively; also recorded: comparable ligand-binding abilities to that of the C22 fatty acid DHA | reduced the interaction
2 | CCCCCC(O)CCC=CCC=CCCCCC(=O)O (stereo not drawn) [γHYD, 13-hydroxy-cis-6,cis-9-octadecadienoic acid] | activated PPARδ more robustly than DHA and eicosapentaenoic acid as well as GLA | more robust PPARδ activation than their original compound, GLA | 10.6 | increased the expression of PPARδ target genes | displaced [^14C] DHA binding to PPARδ LBD competitively; also recorded: comparable ligand-binding abilities to that of the C22 fatty acid DHA | reduced the interaction
3 | CCCCC/C=C\C/C=C\C/C=C\CCCCC(=O)O [GLA, γ-linolenic acid, reference compound] | – | – | 509 | – | only weak competition | –

From paper PMC9636582 (The Journal of Biological Chemistry, 2022)
